Literature values as cited in patent publication US20200197351A1, “TRIVALENT AND DIVALENT CATIONS AS ADMINISTRABLE AGENTS FOR INCREASED PROCESSIVITY AND IMPROVED FIDELITY OF REVERSE TRANSCRIPTASE IN TELOMERASE AND IN NUCLEIC ACID POLYMERASES” (priority 2018, published 2020).

Settings: detailed testing in mammals

Compound: [Sc] [Scandium]
- toxicity: little or no toxicity
